Source: patent publication US11285189B2, “Compositions and uses of locally-applied antimicrobial synthetic cationic polypeptide(s) with enhanced performance and safety” (priority 2017, dated 2022)

What was measured:
[1] = Surface tension, Du Nouy ring; assay type: physicochemical; conditions: samples at 0.1 mM, room temperature
Method: Samples were prepared at 0.1 mM and assessed using TA.XT2 Texture Analyzer with a 500 g load cell, 5 cm diameter Du Nouy ring and probe speed of 0.2 mm/s at room temperature.
Surface tension of various preparations of synthetic cationic polypeptide(s) in water. Samples were prepared at 0.1 mM and assessed using TA.XT2 Texture Analyzer with a 500 g load cell, 5 cm diameter Du Nouy ring and probe speed of 0.2 mm/s at room temperature.
Surface tension: effect of acetic acid as an additive.

[2] = Kinematic viscosity, glass capillary (Ubbelohde) viscometers, 37° C.; assay type: physicochemical; conditions: 1 and 2 wt %
Method: FIGS. 13A-B. (a) Kinematic viscosity of various synthetic cationic polypeptide(s) in water at 1 wt % and measured using glass capillary viscometers (Ubbelohde viscometers) at a temperature of 37° C. (b) Kinematic viscosity of KrL-100/5.7 (lot BAC02) vs. bovine serum albumin; water is provided for reference.
FIG. 14. Kinematic viscosity of synthetic cationic polypeptide(s) with a lysine-L-leucine block sequence arrangement (KL) in water at 0.5 wt % and measured using glass capillary viscometers (Ubbelohde viscometers) at a temperature of 37° C.
FIG. 13A depicts kinematic viscosity values of various synthetic cationic polypeptide(s) in water at 1 wt % as measured using glass capillary viscometers (Ubbelohde viscometers). […] Albumin is an abundant blood protein and has a molecular weight of approximately 66.5 kDa and total chain length of approximately 583 amino acids units.
The latter has a longer overall chain length, a similar sized hydrophobic block, but a different composition of hydrophobic amino acid units (racemic D,L-leucine vs. enantiopure L-leucine).

Molecule | effect on surface tension of water [1] | effect on viscosity of aqueous preparations [2]
polyhexamethylene biguanide [PHMB] | little or no effect | –
bovine serum albumin: abundant blood protein, approximately 66.5 kDa, approximately 583 amino acid units | – | little, if any effect on viscosity
[H]/N=C(\N/C(=N/[H])NCCCCCCNC(=N)NC(=N)Nc1ccc(Cl)cc1)Nc1ccc(Cl)cc1 [chlorhexidine, chlorhexidine gluconate] | little or no effect | –
